Measurements as given in patent US7229630B2, “Stabilized formulations of alpha adrenergic receptor antagonists and the uses thereof” (Novalar Pharmaceuticals, Inc., priority 2002, dated 2007).
Structures can show the parent of a compound that is named as a salt.

System: healthy adult volunteer subjects
Assay: Dose range study of reversal of local anesthesia after mandibular nerve block
Type: in vivo, human
Description: The objectives of this study were to evaluate the safety and efficacy of a range of doses of phentolamine in reversing local anesthesia after a mandibular nerve block. […] Subjects palpated their lower lip, chin, tongue, and teeth every five minutes for the next five hours after injections.

- electrocardiogram (0.02 mg, 0.06 mg, 0.4 mg in 1.8 ml): no abnormalities
Structure (SMILES): Cc1ccc(N(CC2=NCCN2)c2cccc(O)c2)cc1 [Phentolamine Mesylate, phentolamine mesylate]
- Adverse events (0.02 mg, 0.06 mg, 0.4 mg in 1.8 ml, vs placebo): few and no differences were noted between the active and placebo groups
- duration of anesthesia (all doses tested (0.02 mg, 0.06 mg, 0.4 mg in 1.8 ml), 60 minutes after lidocaine 2% with epinephrine 1:100,000, vs saline, each measured tissue): significantly (p<0.05) reduced
